Patent publication US9802942B2, “Substituted 4-methyl-pyrrolo[1,2-A]pyrimidine-8-carboxamide compounds and uses thereof for modulating glucocerebrosidase activity” (Northwestern University, priority 2015, dated 2017)

Tests used:
[1] = target: T1, glucocerebrosidase (GCase), recombinant wt. enzyme velaglucerase alfa (Homo sapiens, UniProt P04062); test: Glucocerebrosidase activity assay with red substrate (Res-β-glc); type: biochemical; details: at 50 μM
T1 construct: purchased Shire Human Genetic Therapies, Inc. Vpriv
T1 sequence (P04062 40-536): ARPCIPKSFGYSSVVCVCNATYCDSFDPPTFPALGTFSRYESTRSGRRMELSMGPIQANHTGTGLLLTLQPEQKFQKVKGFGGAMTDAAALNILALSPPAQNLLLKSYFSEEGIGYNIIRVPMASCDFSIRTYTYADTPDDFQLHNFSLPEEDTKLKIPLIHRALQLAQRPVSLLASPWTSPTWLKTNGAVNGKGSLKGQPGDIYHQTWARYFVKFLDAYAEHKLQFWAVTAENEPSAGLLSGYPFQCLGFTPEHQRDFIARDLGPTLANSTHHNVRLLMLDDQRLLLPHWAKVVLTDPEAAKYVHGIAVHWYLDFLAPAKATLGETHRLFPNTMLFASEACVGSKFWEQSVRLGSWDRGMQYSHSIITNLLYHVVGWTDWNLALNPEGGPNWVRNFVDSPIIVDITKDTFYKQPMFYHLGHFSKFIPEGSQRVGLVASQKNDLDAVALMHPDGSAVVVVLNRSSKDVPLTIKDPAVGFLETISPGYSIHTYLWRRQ
Experimental: The compounds in DMSO solution 0.5 μL/well were transferred to a black 96-well plate (the final titration was 24 nM to 50 μM, 12 concentrations, 2 times dilution). 33.5 μL enzyme solution (7.5 nM final concentration) was transferred to the wells. After 5 min of incubation at room temperature, the enzyme reaction was initiated by the addition of 33 μL/well blue substrate or 66.5 μL/well red substrate. Final concentrations of the blue substrate (4MU-Glc) and red substrate (Res-Glc) were 1.5 mM and 30 μM, respectively. The red substrate reaction was measured in the Biotek Synergy H1 multi-mode plate reader with Ex=573 nm and Em=610 nm at 37° C. every 20 sec for 30 min. The blue substrate reaction was terminated by the addition of 33 μL/well stop solution (1 M NaOH and 1 M glycine mixture, pH 10) after 30 min of incubation at 37° C. The fluorescence was then measured in the plate reader at Ex=365 nm and Em=440 nm. […]
The compounds in DMSO solution 0.5 μL/well was transferred to a black 96-well plate (the final titration was 24 nM to 50 μM, 12 concentrations). […] The red substrate reaction was measured in the Biotek Synergy H1 multi-mode plate reader with Ex=573 nm and Em=610 nm at 37° C. in every 20 seconds for 30 min. […] The fluorescence was then measured in the plate reader with Ex=365 nm and Em=440 nm.

[2] = target: T1, glucocerebrosidase (GCase), recombinant wt. enzyme velaglucerase alfa; test: Glucocerebrosidase activity assay with blue substrate (4MU-Glc); type: biochemical; details: 4MU-Glc substrate enzyme activity assay
Experimental: The compounds in DMSO solution 0.5 μL/well were transferred to a black 96-well plate (the final titration was 24 nM to 50 μM, 12 concentrations, 2 times dilution). 33.5 μL enzyme solution (7.5 nM final concentration) was transferred to the wells. After 5 min of incubation at room temperature, the enzyme reaction was initiated by the addition of 33 μL/well blue substrate or 66.5 μL/well red substrate. Final concentrations of the blue substrate (4MU-Glc) and red substrate (Res-Glc) were 1.5 mM and 30 μM, respectively. The red substrate reaction was measured in the Biotek Synergy H1 multi-mode plate reader with Ex=573 nm and Em=610 nm at 37° C. every 20 sec for 30 min. The blue substrate reaction was terminated by the addition of 33 μL/well stop solution (1 M NaOH and 1 M glycine mixture, pH 10) after 30 min of incubation at 37° C. The fluorescence was then measured in the plate reader at Ex=365 nm and Em=440 nm.
The recombinant wt. enzyme velaglucerase alfa (Vpriv®, Shire Human Genetic Therapies, Inc.) was obtained from residual solution after clinical infusions. The GCase activity assay buffer was composed of 50 mM citric acid, 176 mM K2HPO4, and 0.01% Tween-20 at pH 5.9. A solution of 1 M sodium hydroxide and 1 M glycine was used as the stop solution for the 4MU-β-glc substrate assay.
The compounds in DMSO solution 0.5 μL/well was transferred to a black 96-well plate (the final titration was 24 nM to 50 μM, 12 concentrations). 33.5 μL enzyme solution (7.5 nM final concentration) was transferred to the wells. After 5 min of incubation at room temperature, the enzyme reaction was initiated by the addition of 33 μL/well 4MU-Glc substrate or 66.5 μL/well red substrate. Final concentrations of the 4MU-Glc substrate and Res-Glc substrate were 1.5 mM and 30 μM, respectively. The red substrate reaction was measured in the Biotek Synergy H1 multi-mode plate reader with Ex=573 nm and Em=610 nm at 37° C. in every 20 seconds for 30 min. The 4MU-Glc substrate reaction was terminated by the addition of 33 μL/well stop solution (1 M NaOH and 1 M glycine mixture, pH 10) after 30 min of incubation at 37° C. The fluorescence was then measured in the plate reader with Ex=365 nm and Em=440 nm.

GCase = target: T2, GCase (Homo sapiens, UniProt P04062); test: Binding affinity test by FP assay (competition with probe 3); details: in words; 19.5 nM to 10 μM
T2 construct: purchased Shire Human Genetic Therapies, Inc. Vpriv
T2 sequence (P04062 40-536): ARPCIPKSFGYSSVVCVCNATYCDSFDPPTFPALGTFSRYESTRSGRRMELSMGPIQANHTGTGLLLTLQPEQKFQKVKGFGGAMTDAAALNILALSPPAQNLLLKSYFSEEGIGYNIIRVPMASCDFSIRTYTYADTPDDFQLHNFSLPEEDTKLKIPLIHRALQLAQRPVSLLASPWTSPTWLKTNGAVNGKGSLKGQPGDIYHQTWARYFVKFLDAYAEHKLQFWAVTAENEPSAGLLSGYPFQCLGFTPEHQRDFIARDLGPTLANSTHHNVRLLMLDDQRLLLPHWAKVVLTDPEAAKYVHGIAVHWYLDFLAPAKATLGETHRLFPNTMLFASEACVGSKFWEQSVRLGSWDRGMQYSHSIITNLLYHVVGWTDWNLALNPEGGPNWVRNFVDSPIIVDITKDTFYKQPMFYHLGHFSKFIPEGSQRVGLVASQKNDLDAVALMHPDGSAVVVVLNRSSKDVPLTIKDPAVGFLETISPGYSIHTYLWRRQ
Experimental: The enzyme in GCase enzyme activity buffer (25 μL/well) was added to a 384-well black plate. The fluorescent probe 3 (25 nL/well, 50 nM final concentration) was transferred to a 384-well black plate using a Labcyte Echo 550 Liquid Handler system. Compounds in DMSO stock solution (50 nL) were transferred to the plate. The plate was shaken at room temperature in dark for 20 min. The final concentration was 19.5 nM to […], 10 concentrations, 2 times dilution. The fluorescence polarization was measured in a Molecular Devices Analyst GT with Ex=535 nm and Em=580 nm, G Factor=1.05.
The enzyme in GCase enzyme activity buffer (25 μL/well) was added to a 384-wells black plate, The fluorescent probe 3 (25 nL/well, 50 nM final concentration) was transferred to a 384-wells black plate by using Labcyte Echo 550 Liquid Handler system. Compounds 1, and 2 in DMSO stock solution (50 nL) (the final titration was 19.5 nM to 10 μM, 10 concentrations) were transferred to the plate. The plate was shook at room temperature in dark for 20 min. The fluorescence polarization was measured in Molecular Devices Analyst GT with Ex=535 nm and Em=580 nm, G Factor=1.05.

## Cc1cc(C)n2ccc(C(=O)Nc3ccc(-c4cn(CCOCCOCCN)nn4)cc3)c2n1 [No. 3, N-(4-(1-(2-(2-(2-aminoethoxy)ethoxy)ethyl)-1H-1,2,3-triazol-4-yl)phenyl)-2,4-dimethylpyrrolo[1,2-a]pyrimidine-8-carboxamide]
[1]
  activation of Res-β-glc substrate hydrolysis: 10 folds
[2]
  maximum activity / activation activity: around 14 folds
[2]; read-out: AC50
  AC50: 6.31 µM
GCase
  activity in FP competition with probe 3: much higher activity
